SMILES strings stand for the structures. A value given as a limit tells only on which side of the number the result lay.

The melting point is the temperature, or range, at which the solid turns liquid.

In the case of `O=C(/C=C/c1ccccc1)NC1CCN(CCC2CCOc3ccccc32)CC1` (centres undefined), the melting point lay in the range of 168 to 170 °C.
For the compound `COc1cc(C(C)C(=O)O)cc2ccc3ccccc3c(=O)c12` (centres undefined), the melting point fell in the range of 144 to 147 °C.
Compound `COc1ccc(C2(c3ccc(OC)cc3)CCN(C[C@H]3CN(C)[C@@H]4Cc5c(Br)[nH]c6cccc(c56)[C@@]4(OC)C3)CC2)cc1` yielded a melting point of 167 to 172 °C.
Take `CC[C@H](C)CNC(=O)[C@@H](C[C@H](O)[C@H](CC1CCCCC1)NC(=O)OC(C)(C)C)C(C)(C)O`: the melting point is 64 to 67 °C.
`CCCCC(=O)N[C@H]1CC[C@H](CCN2CCN(c3nccc4c3CCO4)CC2)CC1` showed a melting point of 180 °C.
With `Cc1ccc(-c2nc(C)ccc2N2CCN(c3ccc(C)cc3)CC2)cc1`, the melting point is 131 to 139 °C.
For the compound `CCCCc1noc(-c2ccccc2)c1-c1ccc(S(N)(=O)=O)cc1`, the melting point came to 150 °C.
With `COc1ccc(C(=O)CCCCCN2CCC(CNC(=O)c3cc(Cl)c(N)cc3OC)CC2)cc1` the figure was 133 to 135 °C; with `CC(=O)Oc1ccc(C(F)(F)C(F)(F)C(F)(F)I)cc1`, 75 to 81 °C; with `NCCc1ccc(OCCC(c2ccc(Cl)cc2)(c2ccc(Cl)cc2)c2ccc(Cl)cc2)cc1`, 132 to 135 °C.
Turning to `CCN(CC)C(=O)c1ccc(CCCCOCCCCCCN(Cc2ccccc2)CC(O)c2ccc(O)c3[nH]c(=O)ccc23)cc1` (centres undefined), the melting point lay within 101 to 103 °C.
As to `O=C(O)COc1cccc2c1CCc1sc(S(=O)(=O)C(c3ccc(Cl)cc3)c3ccc(Cl)cc3)nc1-2`, the melting point fell in the range of 197 to 199 °C.
`CC(c1c[nH]c([N+](=O)[O-])n1)N1CCCCC1` (centres undefined): the melting point lay within 61 to 62 °C.
Consider `CCc1ccc(Oc2ccc(N3CCN(c4cccc(C)c4)CC3)nn2)cc1`, for which the melting point worked out at 107 °C.
With `Cc1cc(C=O)c(OCCCCCCBr)c(C=O)c1` the figure was 46 °C.
As for `CN(C)C=CC(=O)c1c(-c2ccc(F)cc2)nc2occn12`, the melting point lay in the range of 187 to 189 °C.
Consider `COc1ccc(Cl)cc1-c1nnn(-c2ccc(C(F)(F)F)cc2Cl)c1N`, for which the melting point was 153 °C.
With `CS(=O)(=O)c1ccc(-c2[nH]c3ccccc3c2-c2ccc(Br)cc2)cc1` the figure was 225 to 226 °C; with `CCNC(=O)Oc1ccc2cc(N3CC(COC)OC3=O)ccc2c1` (centres undefined), 126 to 128 °C; with `C=CC(=O)Oc1cccc(-c2ccc3cc(OC(=O)C=C)ccc3c2)c1`, 75.4 °C.
Turning to `COc1ccccc1OCC(O)CN1CCC(NC(=O)NC(=O)c2ccc(F)cc2)CC1` (centres undefined), the melting point was in the range of 194 to 195 °C.
In turn, `CCc1nn(CCO)c(CC)c1C(=O)c1cc(Cl)cc(Cl)c1` had a melting point of 134 °C.
On to `COCCc1nc2c(N)nc3ccccc3c2n1CCCNC(=O)NC1CCCCC1`, for which the melting point was 179 to 180 °C.
`O=S(=O)(c1ccccc1)N1CCC(Nc2nc(Cl)nc(N3CCCC3)n2)CC1` showed a melting point of 184 to 186 °C.
Consider `O=C(Nc1nc[nH]n1)c1ccc(-c2ccc3nnn(Cc4ccc5ncccc5c4)c3n2)cc1F`, for which the melting point lay within 265 to 267 °C.
`CCCCCCCCCCCCCCCCNc1ccc(C(=O)NC(C)(C)C(=O)O)cc1` showed a melting point of 199 to 202 °C.
In the case of `CCCOc1ccc(S(C)(=O)=O)cc1C(=O)Nc1c(CC)n[nH]c1C(N)=O`, the melting point lay in the range of 209 to 210 °C.
`CCN1c2ccc(C#N)cc2N(CCCCS(=O)(=O)O)C1C` (centres undefined) gave a melting point of more than 260 °C.
In the case of `CC(C)(C)CC(C)(C)c1cc(N=Nc2cc([N+](=O)[O-])ccc2Cl)c(O)c(C(C)(C)c2ccccc2)c1`, the melting point lay within 153 to 156 °C.
In turn, `C=CCSc1cc(C(=O)O)cc(S(N)(=O)=O)c1Oc1ccccc1` came in with a melting point of 218 to 219 °C.
As to `Cc1ccc(-c2ccccc2-c2nnn[nH]2)cc1`, the melting point fell in the range of 148 to 150 °C.
The same measure for `COc1ccc(Cc2nc(-c3ccc(F)cc3)c(-c3ccc(S(C)(=O)=O)cc3)o2)cc1`: 123 to 124 °C.
Turning to `CC(=O)OC1CSC(Oc2c(C#N)ccnc2C)C(OC(C)=O)C1OC(C)=O` (centres undefined), the melting point lay within 109 to 113 °C.
Regarding `NC(=NO)c1cccc(Oc2ccc3c(c2)S(=O)(=O)N=C2CCCN23)c1`, the melting point is 165 to 169 °C.
With `Cc1c(Cl)cc2nc(Cl)c(Cl)nc2c1[N+](=O)[O-]` the figure was 121 to 122 °C; with `COc1ccc(NC(=O)c2c(C)c([N+](=O)[O-])cc3nc(OC)c(OC)nc23)cc1`, 206 to 208 °C; with `CCOC(=O)CCC1(C)Oc2ccc([N+](=O)[O-])cc2O1` (centres undefined), 76 to 78 °C.
The same measure for `COC(=O)N=CNNc1cc(SCC(C)C)ccc1NC(C)=O`: 180 to 184 °C; for `CC(C)c1cccc(C(C)C)c1NC(=O)NCCN1CCN(CCSc2nc3ccccc3s2)CC1`: 147 to 149 °C.
For the compound `Cc1ccc(C2(c3ccc(C)cc3)OC(=O)N3CCN(C(=O)Nc4ccc(F)cc4F)CC32)cc1` (centres undefined), the melting point is 120 to 122 °C.
In the case of `OCC(O)Cc1ccccc1OCc1ccc2ccccc2c1` (centres undefined), the melting point was 119 to 120 °C.
With `Cc1c(F)cccc1NC(=O)c1ccccc1CN1C(=O)C2(COc3cc4c(cc32)CCO4)c2ccccc21` (centres undefined) the figure was more than 230 °C.
Compound `CCC(O)(c1cc(F)cc(Sc2ccc3c(-c4ccoc4)cc(C#N)cc3c2)c1)c1nccs1` (centres undefined) gave a melting point of 120 to 122 °C.
For `Cc1ccc(Cl)cc1C1CC(=O)c2c(C)ccnc2C1` (centres undefined), the melting point fell in the range of 125 to 127 °C.
For `COc1cc(CNc2c(NC(C)(C)C)c(=O)c2=O)cc(OC)c1`, the melting point is 222 to 223 °C.
Regarding `Clc1ccc(-c2ccc3nncn3n2)cc1`, the melting point fell in the range of 216 to 218 °C.
Compound `CCCCOc1ccc(S(=O)(=O)N2CCN(C)CC2)cc1-c1nc2cc3nc[nH]c3cc2c(=O)[nH]1` showed a melting point of 124 to 126 °C.
The compound `CN1CC(Cc2ccccc2)OC1=O` (centres undefined) returned a melting point of 80 to 82 °C.
`CN=C(O)c1c(Sc2ccc(OC)cc2)c(Sc2ccc(OC)cc2)c(Sc2ccc(OC)cc2)c(Sc2ccc(OC)cc2)c1C(=O)O` registered a melting point of 168 to 170 °C.
Compound `N=C(N)NN=C1CCc2ccc(N)cc21` returned a melting point of more than 280 °C.
Turning to `CCCCc1nc(SC)c(C(=O)O)n1Cc1ccc(-c2ccccc2S(=O)(=O)NC(=O)C(c2ccccc2)c2ccccc2)cc1`, the melting point came to 205 °C.
Turning to `COCc1ccc(C#Cc2ccc3c(c2)C(C)(C)CCC3(C)C)cc1`, the melting point fell in the range of 93 to 94 °C.
In the case of `N=C(Nc1ccc(CNCc2ccccc2)cc1)c1cccs1`, the melting point lay in the range of 73 to 74 °C.
The compound `COC(=O)c1ccccc1Nc1c(Cl)ccc(C)c1Cl` gave a melting point of 130 to 131 °C.
With `CCc1nn(CCO)c(CC)c1Oc1cc(C#N)cc(S(C)(=O)=O)c1` the figure was 133 °C.
`CN(C(=O)Oc1ccc(Cl)c(C(C)(C)C)c1)c1cccc(Cl)c1` came in with a melting point of 65 to 67 °C.
For the compound `COc1ccc2nc(-c3ccc(C=C4C(=O)C5(C)CCC4C5(C)C)cc3)[nH]c2c1` (centres undefined), the melting point is 138 to 142 °C.
Turning to `CC(=O)c1ccc(OCc2ccsc2)cc1OC(CCc1ccccc1C#N)C(=O)O` (centres undefined), the melting point was 132 to 134 °C.
Consider `O=C1N(Cc2ccc(O)cc2)c2ccccc2C12COc1cc3c(cc12)OCCO3` (centres undefined), for which the melting point was 243 to 244 °C.
With `Oc1ccc2nc(-c3ccc(C45CC6CC(CC(C6)C4)C5)c(O)c3)[nH]c2c1` the figure was 250 to 252 °C.
Compound `COc1ccc2[nH]cc(S(=O)(=O)c3ccccc3)c2c1` came in with a melting point of 151 to 155 °C.
In turn, `COc1cccc2c(C(=O)c3ccc(OC4CCCCC4N4CCCCC4)cc3)c(-c3ccc(OCCN4CCCC4)cc3)sc12` (centres undefined) had a melting point of 66 to 69 °C.
`CCOC(=O)C1=C(C)NC(COCCn2ccnc2)=C(C(=O)OCC)C1c1ccccc1Cl` (centres undefined) yielded a melting point of 163 to 165 °C.
For `CCCc1nc(/C=C/c2ccccc2)c(C(=O)OCC)n1Cc1cc2c(cc1Cl)OCO2`, the melting point stood at 161 °C.
Compound `CCOc1ccc(OC)c2c1CCC([N+](=O)[O-])=C2` showed a melting point of 90 to 92 °C.
`Cc1nc(N2CCN(Cc3ccc(C(F)(F)F)nc3)C2=O)sc1C(N)=O` registered a melting point of 225 to 228 °C.
With `Cc1ccc([C@H](CC(=O)O)NC(=O)Nc2c(O)ccn(Cc3ccccc3Cl)c2=O)cc1` the figure was 113 to 115 °C; with `CCCC(CC(=O)NC(=O)OC(C)(C)C)Nc1ccccc1` (centres undefined), 103 to 104 °C.
`N#Cc1[nH]c(Br)c(Br)c1Br`: the melting point lay in the range of 215 to 218 °C.
For `C=Cc1ccc(CP(=O)(C(=O)c2c(C)cc(C)cc2C)C(=O)c2c(C)cc(C)cc2C)cc1`, the melting point was determined as 208 °C.
Compound `COc1ccc(C2C(C(=O)O)C2(C)C)cc1` (centres undefined) had a melting point of 115 °C.
In turn, `Cc1cccc(NC(=O)c2cc(=O)[nH]c3ccc(C(=O)c4ccc(Cl)cc4)cc23)c1` registered a melting point of 230 °C.
In the case of `COC(=O)c1cc(N)ccc1Oc1ccccc1`, the melting point fell in the range of 154 to 156 °C.
Compound `CNC(=O)[C@@H]1O[C@H]1c1ccc(OC)cc1` showed a melting point of 135 to 136 °C.
On to `O=C(Nc1ccc(-n2nc(C(F)(F)F)cc2C(F)(F)F)cc1)c1cccc(Cl)c1`, for which the melting point fell in the range of 142 to 144 °C.
Compound `CC(C)(C)c1cc(C=O)c2ccccc2c1O` returned a melting point of 195 to 196 °C.
In turn, `O=C1CCC(N2Cc3c(OCc4ccc(CN5CC6CCC(C5)O6)cc4)cccc3C2=O)C(=O)N1` (centres undefined) returned a melting point of 228 to 230 °C.
Regarding `CC(=O)c1cc([N+](=O)[O-])c(N)cc1C#N`, the melting point is 255 to 260 °C.
`CC(C)(Oc1ccc(-c2ccc(CCNC(=O)c3ccccc3)cc2)cc1)C(=O)O`: the melting point came to 179 °C.
With `CC(C)(C)NC(=O)N1CC(Oc2ccc(C(F)(F)F)cc2)C1` the figure was 145 to 146 °C.
The same measure for `O=c1[nH]nc(Cc2ccc([N+](=O)[O-])cc2)o1`: 170 to 171 °C; for `c1ccc2c(c1)CC(N1CCN(c3ccc4c(c3)OCCO4)CC1)C2`: 183 to 185 °C; for `CN(C)C1CCc2oc3ccc(NC(=O)c4ccncc4)cc3c2C1` (centres undefined): 146 to 147 °C.
Compound `CN(C)CCOc1ccc2oc(-c3cc4ccccc4cn3)cc(=NO)c2c1` yielded a melting point of 203 to 205 °C.

Source of the values: a melting point compilation (Tetko et al.; mined from patent text by program, amines drawn as free bases though some values may be those of a salt).
